Values after ≈ are worked out from the molar mass of the structure shown. Values joined by “and” are separate entries in the source; they are usually repeats but may differ in a detail not shown here. Equal values may be shown once.
Assays:
[1] = tested on: Pseudomonas aeruginosa Pa14; experiment: FIC index of combinations with conventional antibiotics, strain Pa14; type: cell-based; details: strain Pa14 (Col^R)
Method: (§1) The bacterial inoculum was established by the dilution method from actively-growing cultures in Mueller-Hinton (MH) broth, standardized with 0.5 McFarland turbidity standard as described in the CLSI method M26-A.
Both the bacterial inoculum and the antimicrobial agents, including the compounds structurally related to cysteamine, were added simultaneously to the plates. The plates were incubated at 37° C. for 24 h and the optical density was read at 625 nm on a microtitre plate reader (BioTek Powerwave XS, Winooski, USA). The MIC was obtained as the lowest concentration of antimicrobial showing total inhibition of bacterial growth.
The FIC corresponds to an interaction coefficient indicating whether the combination of antimicrobial agents is synergistic, additive, antagonist or neutral. The FIC is determined by comparing the activity of an agent in combination (MIC of agent A+agent B) with the activity of the agent alone (MIC of agent A or agent B) as follow (Singh et al., 2000): FIC=MICA[combination]/MICA[alone]+MICB[combination]/MICB[alone]
Additive combinations of two antimicrobial agents are indicated by a FIC index of 1, whereas a FIC index<1 indicates synergistic combinations. Neutral combinations would give a FIC between 1 and 4, a FIC index higher than 4 indicates antagonist effects between the two antimicrobial agents.
The FIC was also calculated to assess the interaction of two antimicrobial agents in combination against bacterial samples.

[2] = tested on: Pseudomonas aeruginosa Pa14; experiment: MIC determination, strain Pa14; type: cell-based
Method: as §1
(§2) Both the bacterial inoculum and the antimicrobial agents, including the compounds structurally related to cysteamine, were added simultaneously to the plates. The plates were incubated at 37° C. for 24 h and the optical density was read at 625 nm on a microtitre plate reader (BioTek Powerwave XS, Winooski, USA). […]
(§3) A number of compounds related in chemical structure to cysteamine were examined for antimicrobial activity; cystamine (dihydrochloride salt), taurine and 2,3-dimercaptosuccinic acid. Other compounds chemically related to cysteamine are known, but are toxic, and are therefore of no utility in a drug of this nature.

[3] = tested on: Pseudomonas aeruginosa cells; experiment: Tobramycin alone and with cysteamine in non-mucous and mucous environment (FIG. 3); type: cell-based; details: mucous environment (NaCl and/or mucin)
Description: FIG. 3: provides a comparison of the activity of Tobramycin alone and when in combination with cysteamine (NM001) against Pseudomonas aeruginosa cells cultured in a non-mucous environment and when cultured in a mucous environment replicating that found within the CF lung (in the presence of NaCl and/or mucin).

[4] = tested on: Pseudomonas aeruginosa Pa01; experiment: MIC determination, strain Pa01; type: cell-based
Method: as §1, §2, §3

[5] = tested on: P. aeruginosa PAO1 biofilms; experiment: Post-antimicrobial effect and metabolic activity of biofilms after treatment (FIG. 9, 10); type: cell-based, Pseudomonas aeruginosa; details: 24 h following treatment of the biofilms
Method: FIG. 9: is a graph showing the post-antimicrobial effect of cysteamine (NM001) in combination with Tobramycin versus P. aeruginosa PAO1 biofilms. […] The PAE was determined by transfer of 10 μl biofilm cultures into 90 μl sterile MH broth in triplicate in microtitre plates following treatment. Bacterial growth was followed on a BioTek plate reader for 24 h at 37° C. Microbial metabolic activity following treatment of the biofilms was determined using the same method as for PAE determination and adding 10% (v/v) of a fluorescent cell viability indicator, resazurin (Alamar Blue, Serotec), which detected microbial metabolic activity growth by increase in fluorescence. Fluorescence was measured over 24 h at 37° C. using a BioTek Synergy HT microplate reader (BioTek, Winooski, USA) at 530/590 nm.

## NCCS [Cysteamine, cysteamine]
[1]; in combination with Ciprofloxacin, listed as Cysteamine (NM001)
  FICI (Additive) Cip: 0.75 and 0.63
[1]; in combination with Colistin
  FICI (Synergy) Col: 0.38
[1]; in combination with Colistin, listed as Cysteamine (NM001)
  FICI (Additive) Col: 0.53 and 0.5 and 0.56
[1]; in combination with Gentamicin, listed as Cysteamine (NM001)
  FICI (Additive) Gent: 0.63 and 0.5 and 0.75
[1]; in combination with Tobramycin, listed as Cysteamine (NM001)
  FICI (Additive) Tob: 0.56 and 0.75 and 0.5
[2]
  MIC50: 125 to 250 mg/L (≈ 1.62 to 3.24 mM)
  MIC90: 500 mg/L (≈ 6.48 mM)
[2]; read-out: MIC100
  MIC: 1330 mg/L (≈ 17.3 mM)
[3]
  effect on activity of conventional antibiotics: restores antibiotic activity
[4]
  MIC50: 250 to 500 mg/L (≈ 3.24 to 6.48 mM)
  MIC90: 500 mg/L (≈ 6.48 mM)
[4]; read-out: MIC100
  MIC: 667 mg/L (≈ 8.64 mM)
[5]
  post-antimicrobial effect (delayed bacterial growth, reduced metabolic activity of the biofilm): significant PAE
